Test results published in PubChem BioAssay AID493116 (Broad Institute, 2011).
The source made the active and inactive calls.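 Rule for the calls: active = falling signal with an AC50 no greater than ten times the top valid dose tested for that sample; inconclusive = flat response with 30 to 70% inhibition, or poor fit; inactive = activity in the rising direction, and the rest.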

System: not listed separately
Experiment: inhibitors of AI-2-induced luminescence in V. harveyi MM32, dose response, mechanism study for V. harveyi quorum sensing inhibitors, strain MM32 LuxS-null, dry powder, set 4 (AID 493116)
Details: V. harveyi MM32 AI-2 bioluminescence, 5 h; at 16 µM (top of the series)
For `CN(C)C(=O)c1ccccc1NS(=O)(=O)c1cn(C)cn1`, the activity change, negative = inhibition was 0.78% (inactive).
For `CCc1ccc(-c2ccc(C(=O)O)n2CC)cc1`, the activity change, negative = inhibition was 1.73% (inactive).
In the case of `CC(=O)Nc1ccccc1NS(=O)(=O)c1cn(C)cn1`, the activity change, negative = inhibition is reported as -2.94% (inactive).
In the case of `COc1ccccc1NS(=O)(=O)c1cn(C)cn1`, the activity change, negative = inhibition is reported as -4.54% (inactive).
For `Cn1cnc(S(=O)(=O)Nc2ccccc2F)c1`, the activity change, negative = inhibition was -0.646% (inactive).

System: V. harveyi MM32 AI-2 bioluminescence, 5 h
Experiment: as above
Details: not given
In the case of `O=S(=O)(Nc1cccnc1)c1ccc(Oc2ccccc2)cc1`, the AC50 is reported as 0.538 µM.
Compound `C=Cn1c(C(=O)O)ccc1-c1ccc(CC)cc1` has an AC50 of 2.34 µM.
For `CCc1ccc(-c2ccc(C(=O)O)n2C)cc1`, the AC50 was 2.84 µM.
For `Cn1cnc(S(=O)(=O)Nc2ccccc2Cl)c1`, the AC50 was > 16 µM (inactive).
In the case of `C=Cn1c(C(=O)O)ccc1-c1ccc(OC)cc1`, the AC50 is reported as 6.14 µM.
With `Cn1cnc(S(=O)(=O)Nc2ccc(OC(F)(F)F)cc2)c1` the AC50 was 2.39 µM.
Work on `O=S(=O)(Nc1ccccn1)c1ccc(Oc2ccccc2)cc1` yielded an AC50 of 2.25 µM.
With `Cc1ccccc1NS(=O)(=O)c1cn(C)cn1` the AC50 was > 16 µM (inactive).
For `O=C1C=C/C(=C/Br)O1`, the AC50 was 2.29 µM.
